{
  "source": "patent US8420307B2",
  "about": "“Sperm cryoprotective media” (The Jackson Laboratory, priority 2006, dated 2013)",
  "key": {"bull sperm": {"tested_on": "bull sperm", "test": "Bovine sperm post-thaw motility (IVOS)", "format": "cell-based, Holstein bulls", "conditions": "MTG 0, 100, 500, 1000 or 5000 μM in Triladyl egg yolk extender containing glycerol; 0 and 3 hr", "method": "Semen was collected via an artificial vagina from 6 different Holstein bulls over 3 different days. The bulls were selected such that three produce sperm with good consistent freezing quality and three produce sperm that respond to cryopreservation with poorer consistency. Antibiotics were added to the neat semen and initial volume and concentration were determined using a graduated cylinder and spectrophotometry. From each collection, 5 different 500 μL aliquots of semen were extended with 1.5 mL of Triladyl egg yolk extender (Minitube; Verona, Wis.) containing glycerol. Subsequently, 2 mL of the same extender containing no MTG, 200, 1000, 2000 or 10,000 μM MTG was added to the extended semen to yield the final concentrations for MTG of 0, 100, 500, 1000 or 5000 μM. […]\n(§1) For the examination, 6 straws per treatment per collection were thawed in a 37° C. water bath for at least 60 sec. For each treatment within a collection, two pools of semen were created and analyzed by combining the contents of three straws. […] The percent of motile sperm was determined on 4 different fields within each of 2 separate chambers. For viability the sperm samples were diluted 1:100 in PBS and stained with SYBR 14 ([…]) and propidium iodide (12 μM About 10,000 cells were counted using the Partec Flomax Flow Cytometer (Ft. Collins, Colo.)."}, "bovine sperm": {"tested_on": "bovine sperm", "test": "Bovine sperm post-thaw viability (SYBR 14 / propidium iodide flow cytometry)", "format": "cell-based, Holstein bulls", "method": "Sperm from three collections from each of 6 different bulls were frozen in the presence of MTG at the concentrations indicated on the x-axes. For each collection, two sets of three straws each were created and analyzed twice for sperm viability. Differences in sperm cell viability among the treatments were determined using analysis of variance on arcsine transformed percents and preplanned comparisons to the control of no MTG using Dunnett's method. Panel A illustrates the mean and standard errors for the 6 bulls while panels B though G illustrate the percent of viable sperm for the individuals. […]\nSemen was collected via an artificial vagina from 6 different Holstein bulls over 3 different days. […] Antibiotics were added to the neat semen and initial volume and concentration were determined using a graduated cylinder and spectrophotometry. […]\nas §1"}},
  "note": "“Also recorded” adds a separate entry of the source.",
  "data": [
    {"compound": "OCC(O)CS", "note": "(stereo not drawn) [MTG, monothioglycerol]", "values": [
      {"measurement": "overall post-thaw motility of bull sperm", "setting": "bull sperm", "result": "no ill effects"},
      {"measurement": "post-thaw viability of bovine sperm", "setting": "bovine sperm; MTG 0, 100, 500, 1000 or 5000 μM in egg yolk extender containing glycerol, 6 bulls, FIG. 5", "result": "not negatively influenced; also recorded: enhances post-thaw viability"},
      {"measurement": "increase of viability", "setting": "bovine sperm; bovine sperm, 3 bulls with slight effect", "result": "slight effect"}
    ]}
  ]
}
